Assay results from PubChem BioAssay AID256 (DTP/NCI, 2004).
Values joined by “and” are separate entries in the source; they are usually repeats but may differ in a detail not shown here. Identical values can stand only once. Toxic doses and inconclusive results are not listed.

Test system: CD2F1 mice, L1210 leukemia ip, survival T/C
Assay: NCI In Vivo Anticancer Drug Screen. Data for tumor model L1210 Leukemia (intraperitoneal) in CD2F1 (CDF1) mice
Details: higher = longer survival
In short: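 Ratio T/C, where T is the treated-group value and C the vehicle-dosed control value, from mice implanted with a transplantable tumor.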

[1] = endpoint: mean survival time, dose: 25.0 mg/kg/injection, schedule: Q04DX002 (ip), vehicle: saline with Tween-80
[2] = endpoint: mean survival time, dose: 50.0 mg/kg/injection, schedule: Q04DX002 (ip), vehicle: saline with Tween-80
[3] = endpoint: mean survival time, dose: 100.0 mg/kg/injection, schedule: Q04DX002 (ip), vehicle: saline with Tween-80
[4] = endpoint: mean survival time, dose: 100.0 mg/kg/injection, schedule: Q04DX003 (ip), vehicle: saline with Tween-80
[5] = endpoint: mean survival time, dose: 200.0 mg/kg/injection, schedule: Q04DX003 (ip), vehicle: saline with Tween-80
[6] = endpoint: mean survival time, dose: 400.0 mg/kg/injection, schedule: Q04DX003 (ip), vehicle: saline with Tween-80
[7] = endpoint: mean survival time, dose: 100.0 mg/kg/injection, schedule: Q04DX003 (ip), vehicle: saline
[8] = endpoint: mean survival time, dose: 200.0 mg/kg/injection, schedule: Q04DX003 (ip), vehicle: saline
[9] = endpoint: mean survival time, dose: 400.0 mg/kg/injection, schedule: Q04DX003 (ip), vehicle: saline
[10] = endpoint: mean survival time, dose: 100.0 mg/kg/injection, schedule: Q01DX001 (ip), vehicle: saline
[11] = endpoint: mean survival time, dose: 200.0 mg/kg/injection, schedule: Q01DX001 (ip), vehicle: saline
[12] = endpoint: mean survival time, dose: 400.0 mg/kg/injection, schedule: Q01DX001 (ip), vehicle: saline
[13] = endpoint: mean survival time, dose: 50.0 mg/kg/injection, schedule: Q01DX009 (ip), vehicle: saline
[14] = endpoint: mean survival time, dose: 200.0 mg/kg/injection, schedule: Q01DX009 (ip), vehicle: saline
[15] = endpoint: mean survival time, dose: 100.0 mg/kg/injection, schedule: Q01DX001 (ip), vehicle: saline with Tween-80
[16] = endpoint: mean survival time, dose: 200.0 mg/kg/injection, schedule: Q01DX001 (ip), vehicle: saline with Tween-80
[17] = endpoint: mean survival time, dose: 400.0 mg/kg/injection, schedule: Q01DX001 (ip), vehicle: saline with Tween-80
[18] = endpoint: mean survival time, dose: 200.0 mg/kg/injection, schedule: Q04DX002 (ip), vehicle: saline with Tween-80
[19] = endpoint: mean survival time, dose: 100.0 mg/kg/injection, schedule: Q01DX009 (ip), vehicle: saline with Tween-80
[20] = endpoint: mean survival time, dose: 200.0 mg/kg/injection, schedule: Q01DX009 (ip), vehicle: saline with Tween-80
[21] = endpoint: mean survival time, dose: 400.0 mg/kg/injection, schedule: Q01DX009 (ip), vehicle: saline with Tween-80

## CNCCC(=N)C(=N)CCNC
endpoint: mean survival time, dose: 100.0 mg/kg/injection, schedule: Q04DX002 (ip), vehicle: saline
  T/C: 111 % of control
endpoint: mean survival time, dose: 200.0 mg/kg/injection, schedule: Q04DX002 (ip), vehicle: saline
  T/C: 106 % of control
endpoint: mean survival time, dose: 400.0 mg/kg/injection, schedule: Q04DX002 (ip), vehicle: saline
  T/C: 103 % of control

## COc1cccc2c1CCN1C3=C(CC(OC)CC3)C(=O)CC21 (configuration not stated)
[1]
  T/C: 93 % of control
[2]
  T/C: 104 % of control
[3]
  T/C: 96 % of control
[4]
  T/C: 101 % of control

## CC(=O)OCC1OC([S][Sb]([CH3])[CH3])C(OC(C)=O)C(OC(C)=O)C1OC(C)=O (configuration not stated)
endpoint: mean survival time, dose: 50.0 mg/kg/injection, schedule: Q01DX009 (ip), vehicle: Klucel (hydroxypropylcellulose) (HPC)
  T/C: 92 % of control

## CCOC(=O)C[Si](C)(C)C
endpoint: mean survival time, dose: 25.0 mg/kg/injection, schedule: Q01DX005 (ip), vehicle: water
  T/C: 101 % of control
endpoint: mean survival time, dose: 50.0 mg/kg/injection, schedule: Q01DX005 (ip), vehicle: water
  T/C: 104 % of control
endpoint: mean survival time, dose: 100.0 mg/kg/injection, schedule: Q01DX005 (ip), vehicle: water
  T/C: 101 % of control
endpoint: mean survival time, dose: 200.0 mg/kg/injection, schedule: Q01DX005 (ip), vehicle: water
  T/C: 104 % of control
endpoint: mean survival time, dose: 400.0 mg/kg/injection, schedule: Q01DX005 (ip), vehicle: water
  T/C: 101 % of control

## Nn1nc2ccccc2n1
[4]
  T/C: 111 % of control
[5]
  T/C: 117 % of control
[6]
  T/C: 95 % of control

## CS(=O)(=O)c1cnc2ccccc2n1
[7]
  T/C: 97 % of control
[8]
  T/C: 86 % of control
[9]
  T/C: 95 % of control

## O=C(c1ccccc1)c1cc(-c2ccccc2)nc2ccccc2c2ccccc2[nH]1
endpoint: mean survival time, dose: 100.0 mg/kg/injection, schedule: Q01DX001 (ip), vehicle: Klucel (hydroxypropylcellulose) (HPC)
  T/C: 93 % of control
endpoint: mean survival time, dose: 200.0 mg/kg/injection, schedule: Q01DX001 (ip), vehicle: Klucel (hydroxypropylcellulose) (HPC)
  T/C: 91 % of control
endpoint: mean survival time, dose: 400.0 mg/kg/injection, schedule: Q01DX001 (ip), vehicle: Klucel (hydroxypropylcellulose) (HPC)
  T/C: 100 % of control

## CS/C([S-])=N/N=C/c1ccccn1.[Cl][Pt+]
[4]
  T/C: 94 % of control
[5]
  T/C: 100 % of control

## CSCC(NC(=O)OCc1ccccc1)C(=O)O (configuration not stated)
[4]
  T/C: 101 % of control
[5]
  T/C: 101 % of control

## CCOC(=O)c1ccc(NN=NCCF)cc1
endpoint: median survival time, dose: 3.12 mg/kg/injection, schedule: Q01DX009 (ip), vehicle: distilled water + Tween-80
  T/C: 114 % of control and 96 % of control
endpoint: median survival time, dose: 3.13 mg/kg/injection, schedule: Q01DX009 (ip), vehicle: distilled water + Tween-80
  T/C: 104 % of control
endpoint: median survival time, dose: 6.25 mg/kg/injection, schedule: Q01DX009 (ip), vehicle: distilled water + Tween-80
  T/C: 122 % of control and 98 % of control (2×)
endpoint: median survival time, dose: 12.5 mg/kg/injection, schedule: Q01DX009 (ip), vehicle: distilled water + Tween-80
  T/C: 92 % of control and 96 % of control
endpoint: median survival time, dose: 50.0 mg/kg/injection, schedule: Q01DX009 (ip), vehicle: distilled water + Tween-80
  T/C: 94 % of control

## CC(=O)OC1COC(n2cnc3c(=S)nc[nH]c32)C(OC(C)=O)C1OC(C)=O (configuration not stated)
[10]
  T/C: 97 % of control
[11]
  T/C: 102 % of control
[12]
  T/C: 100 % of control

## CC(C)CC([N+](C)(C)C)P(=O)([O-])O (configuration not stated)
[7]
  T/C: 101 % of control
[8]
  T/C: 95 % of control
[9]
  T/C: 98 % of control

## O=C(O)C1CCCN1C(=O)C(CSC(c1ccccc1)(c1ccccc1)c1ccccc1)NC(c1ccccc1)(c1ccccc1)c1ccccc1 (configuration not stated)
[13]
  T/C: 101 % of control
endpoint: mean survival time, dose: 100.0 mg/kg/injection, schedule: Q01DX009 (ip), vehicle: saline
  T/C: 97 % of control
[14]
  T/C: 98 % of control
endpoint: mean survival time, dose: 400.0 mg/kg/injection, schedule: Q01DX009 (ip), vehicle: saline
  T/C: 97 % of control

## C/C(=N/Nc1ccc([N+](=O)[O-])cc1[N+](=O)[O-])C1CC2CCC1C2 (configuration not stated)
[15]
  T/C: 100 % of control
[16]
  T/C: 96 % of control
[17]
  T/C: 96 % of control

## COc1ccncn1
[3]
  T/C: 98 % of control
[18]
  T/C: 95 % of control
endpoint: mean survival time, dose: 400.0 mg/kg/injection, schedule: Q04DX002 (ip), vehicle: saline with Tween-80
  T/C: 106 % of control

## CCNC(=O)OCCc1c2ccccc2nc2ccccc12
endpoint: mean survival time, dose: 100.0 mg/kg/injection, schedule: Q04DX002 (ip), vehicle: other
  T/C: 105 % of control and 102 % of control
endpoint: mean survival time, dose: 200.0 mg/kg/injection, schedule: Q04DX002 (ip), vehicle: other
  T/C: 97 % of control and 90 % of control
endpoint: mean survival time, dose: 400.0 mg/kg/injection, schedule: Q04DX002 (ip), vehicle: other
  T/C: 94 % of control and 97 % of control

## CCCC/C=C\C=C/CCCC
[15]
  T/C: 102 % of control
[16]
  T/C: 102 % of control
[17]
  T/C: 94 % of control

## O=C(C/C(=N\C(=S)Nc1cc(C(F)(F)F)ccc1Cl)NO)N1CCCC1
endpoint: median survival time, dose: 12.5 mg/kg/injection, schedule: Q01DX009 (ip), vehicle: saline with Tween-80
  T/C: 101 % of control
endpoint: median survival time, dose: 25.0 mg/kg/injection, schedule: Q01DX009 (ip), vehicle: saline with Tween-80
  T/C: 97 % of control and 105 % of control
endpoint: median survival time, dose: 50.0 mg/kg/injection, schedule: Q01DX009 (ip), vehicle: saline with Tween-80
  T/C: 102 % of control (2×) and 106 % of control
endpoint: median survival time, dose: 100.0 mg/kg/injection, schedule: Q01DX009 (ip), vehicle: saline with Tween-80
  T/C: 108 % of control and 109 % of control
endpoint: median survival time, dose: 200.0 mg/kg/injection, schedule: Q01DX009 (ip), vehicle: saline with Tween-80
  T/C: 121 % of control and 122 % of control and 123 % of control
endpoint: median survival time, dose: 300.0 mg/kg/injection, schedule: Q01DX009 (ip), vehicle: saline with Tween-80
  T/C: 86 % of control

## O=C(N/N=C/c1ccc2c(c1)CCC2)c1ccc([N+](=O)[O-])cc1
[4]
  T/C: 95 % of control
[5]
  T/C: 89 % of control
[6]
  T/C: 98 % of control

## COC(=O)C1(C)CCCC2(C)c3cc(OC)ccc3C=CC12 (configuration not stated)
[19]
  T/C: 104 % of control
[20]
  T/C: 106 % of control
[21]
  T/C: 103 % of control

## OC(CN1CCOCC1)CN1CCOCC1
[10]
  T/C: 104 % of control
[11]
  T/C: 104 % of control
[12]
  T/C: 103 % of control

## COC(=O)C1(C(=O)OC)CCCCC1=O
[19]
  T/C: 98 % of control
[4]
  T/C: 97 % of control
[20]
  T/C: 95 % of control
[5]
  T/C: 94 % of control
[21]
  T/C: 95 % of control
[6]
  T/C: 89 % of control

## C[PH+](CC[PH+](c1ccccc1)c1ccccc1)c1ccccc1.[C-]#[O+].[C-]#[O+].[C-]#[O+].[C-]#[O+].[Mo] (configuration not stated)
[1]
  T/C: 93 % of control
[2]
  T/C: 89 % of control
[3]
  T/C: 89 % of control

## CC[n+]1ccc(Nc2ccc(NC(=O)c3ccc(C(=O)Nc4ccc(Nc5cc[n+](CC)c(N)n5)cc4)cc3)cc2)nc1N
endpoint: mean survival time, dose: 12.5 mg/kg/injection, schedule: Q01DX009 (ip), vehicle: saline
  T/C: 172 % of control
endpoint: mean survival time, dose: 25.0 mg/kg/injection, schedule: Q01DX009 (ip), vehicle: saline
  T/C: 325 % of control
endpoint: mean survival time, dose: 40.0 mg/kg/injection, schedule: Q01DX009 (ip), vehicle: saline
  T/C: 265 % of control
[13]
  T/C: 275 % of control
endpoint: mean survival time, dose: 59.0 mg/kg/injection, schedule: Q01DX009 (ip), vehicle: saline
  T/C: 262 % of control
endpoint: mean survival time, dose: 89.0 mg/kg/injection, schedule: Q01DX009 (ip), vehicle: saline
  T/C: 212 % of control
endpoint: mean survival time, dose: 150.0 mg/kg/injection, schedule: Q01DX001 (ip), vehicle: Klucel (hydroxypropylcellulose) (HPC)
  T/C: 167 % of control
[14]
  T/C: 118 % of control
endpoint: mean survival time, dose: 225.0 mg/kg/injection, schedule: Q01DX001 (ip), vehicle: Klucel (hydroxypropylcellulose) (HPC)
  T/C: 315 % of control

## O=C1NC(=O)C(c2ccccc2)(C2CCC2)N1 (configuration not stated)
[4]
  T/C: 95 % of control
[6]
  T/C: 88 % of control

## Cc1cccc(CC(F)F)c1
endpoint: mean survival time, dose: 50.0 mg/kg/injection, schedule: Q04DX003 (ip), vehicle: saline with Tween-80
  T/C: 109 % of control
[15]
  T/C: 104 % of control
[4]
  T/C: 97 % of control
[16]
  T/C: 103 % of control
[5]
  T/C: 96 % of control

## CCNC(=O)c1ccccc1N=NN(C)C
endpoint: mean survival time, dose: 18.7 mg/kg/injection, schedule: Q01DX009 (ip), vehicle: Klucel (hydroxypropylcellulose) (HPC)
  T/C: 105 % of control
endpoint: mean survival time, dose: 18.75 mg/kg/injection, schedule: Q01DX009 (ip), vehicle: Klucel (hydroxypropylcellulose) (HPC)
  T/C: 92 % of control and 97 % of control

## O=C(O)CCNc1ccc2c(c1)B(O)OC2
[4]
  T/C: 98 % of control
[5]
  T/C: 101 % of control
[6]
  T/C: 98 % of control

## CCN=C(N)C(N)=NCC
[1]
  T/C: 100 % of control
[2]
  T/C: 96 % of control
[3]
  T/C: 100 % of control
[18]
  T/C: 100 % of control
